Results published in patent US10344026B2, “Compositions and methods of targeting mutant K-ras” (NANTBIO, INC., priority 2017, dated 2019).

Key:
Assay type in all cases: cell-based
[1] = system: Ishikawa (K-Ras wild type cell line); experiment: Viability assay (CellTiterBlue, 72 hr) Ishikawa; conditions: Homo sapiens, GI50, CellTiterBlue, Ishikawa K-Ras wild-type
Procedure: (§1) Viability assays were performed on exemplary compounds and Table 2 below lists exemplary results for selected compounds tested on K-Ras wild type cell lines (Ishikawa, U87-MG, HCC827, and A375) and various K-Ras mutant cell lines (Panc1-G12D; Panc10.05-G12D; HCT116-G31D). Results are expressed in μM and corresponding structures are shown in FIGS. 2A-2G and Examples 1-152, above.
(§2) Cells are counted and seeded at 1000 cells/36 ul medium/well into 384-well microplates. Cells are returned to 37° C. CO2 incubator for 18 hr. Drug is made as 200× in DMSO and diluted into medium to 10×. To each well is added 4 ul 10× drug, and plates are returned to the incubator. Final assay DMSO concentration is 0.5%. After 72 hr, 8 ul CellTiterBlue (Promega) is added to each well. After 3 hr, fluorescence (Ex550/Em590) is determined on the Victor Plate Reader (Perkin Elmer). Assay range is determined by DMSO control (100% viability) and 100 uM tamoxifen (0% viability). GI50 values are calculated using Graphpad Prism.

K-Ras G12D = target: T1, K-Ras G12D (Homo sapiens, UniProt P01116, G12D); experiment: G-LISA Ras activation, 293H cells transfected with G12D mutant; conditions: compound 1 hour
T1 construct: expressed in transfected cells; host or cells: 293H cells
Procedure: (§3) 293H cells were seeded in 6-wells at 0.6×10^6 cells per well and transfected next day with 5 μg of Ras wild-type, or G12C, G12D or G12V mutant DNA plasmid vector using transfection reagent Lipofectamine 3000. Next day cells were treated with 3.125-25 μM of Ras compounds for 1 hour. Wild-type transfected cells were subsequently treated with 100 ng/ml EGF for 2 minutes. Cells were washed once in ice-cold PBS, lysed in complete lysis buffer on ice, and processed by G-LISA according to Cytoskeleton protocol.

[2] = system: U87-MG (K-Ras wild type cell line); experiment: Viability assay (CellTiterBlue, 72 hr) U87-MG; conditions: Homo sapiens, U-87 MG, GI50, CellTiterBlue, U87-MG K-Ras wild-type
Procedure: as §1, §2

wild type K-Ras = target: T2, wild type K-Ras (Homo sapiens, UniProt P01116); experiment: G-LISA Ras activation, 293H cells transfected with Ras wild-type, EGF stimulated; conditions: compound 1 hour, then 100 ng/ml EGF 2 minutes
T2 construct: expressed in transfected cells; host or cells: 293H cells
Procedure: as §3

[3] = system: HCC827 (K-Ras wild type cell line); experiment: Viability assay (CellTiterBlue, 72 hr) HCC827; conditions: Homo sapiens, GI50, CellTiterBlue, HCC827 K-Ras wild-type
Procedure: as §1, §2

Panc1-G12D = experiment: Viability assay (CellTiterBlue, 72 hr) Panc1; conditions: Homo sapiens, PANC-1, GI50, CellTiterBlue, Panc1 K-Ras G12D, read-out: 72 hr Cell Viability Panc1 (G12D)
Procedure: as §1, §2

HCT116-G31D = experiment: Viability assay (CellTiterBlue, 72 hr) HCT116; conditions: Homo sapiens, HCT-116, GI50, CellTiterBlue, HCT116 K-Ras G13D, read-out: 72 hr Cell Viability HCT116 (G13D)
Procedure: as §1, §2

Panc10.05-G12D = experiment: Viability assay (CellTiterBlue, 72 hr) Panc10.05; conditions: Homo sapiens, Panc1005, GI50, CellTiterBlue, Panc10.05 K-Ras G12D, read-out: 72 hr Cell Viability Panc10.05 (G12D)
Procedure: as §1, §2

[4] = system: phospho-ERK in Panc10.05 (G12D); experiment: In-Cell Western phospho-ERK, Panc10.05; conditions: Homo sapiens, Panc1005, 1 h; Panc10.05, one hour treatment; read-out: In-Cell Western Panc10.05 (G12D) Erk (P)
Procedure: (§4) In-cell phosphorylation assays for Erk and Akt were performed on several of the compounds and exemplary results are shown in Table 3 below using HCC827 and A375 cell lines for wild type K-Ras and Panc1 and Panc10.05 cell lines for G12D K-Ras mutants. Results are expressed in μM and corresponding structures are shown in FIGS. 2A-2G and Examples 1-152, above.
(§5) Cells are seeded in complete medium into black sided, clear-bottom 384-well microplates at 3000 cells/[…]/well. Plates are returned to 37° C. CO2 incubator for 18 hr. Drug is made as 200× in DMSO and diluted into medium to 10×. To each well is added 4 ul 10× test article or controls, and plates are returned to the incubator. Final assay DMSO concentration is 0.5%. After one hour, cells are fixed in formaldehyde, rinsed & permeabilized with triton X-100, and blocked with BSA/Goat serum blocking solution. Primary phospho-Akt and phospho-ERK antibodies are added and plates are incubated overnight at 4° C. Plates are rinsed with Tween-20 wash buffer and secondary antibody (Goat anti-rabbit, Thermofisher) is added. After 2 hours, plates are rinsed in Tween-20 wash buffer, and then PBS. Plates are imaged on the Celigo (Nexcelom) and cellular fluorescence is quantitated. Full inhibition of phospho-Akt is achieved with 1 uM BEZ235 (Sellekchem), while full inhibition of phospho-ERK is achieved with 1 uM MEK Inhibitor II Calbiochem). EC50 values are calculated using Graphpad Prism.

[5] = system: phospho-Akt in Panc1 (G12D); experiment: In-Cell Western phospho-Akt, Panc1; conditions: Homo sapiens, PANC-1, 1 h; Panc1, one hour treatment; read-out: In-Cell Western Panc1 (G12D) Akt (P)
Procedure: as §4, §5

[6] = system: phospho-ERK in Panc1 (G12D); experiment: In-Cell Western phospho-ERK, Panc1; conditions: Homo sapiens, PANC-1, 1 h; Panc1, one hour treatment; read-out: In-Cell Western Panc1 (G12D) Erk (P)
Procedure: as §4, §5

T2 sequence (P01116 whole entry): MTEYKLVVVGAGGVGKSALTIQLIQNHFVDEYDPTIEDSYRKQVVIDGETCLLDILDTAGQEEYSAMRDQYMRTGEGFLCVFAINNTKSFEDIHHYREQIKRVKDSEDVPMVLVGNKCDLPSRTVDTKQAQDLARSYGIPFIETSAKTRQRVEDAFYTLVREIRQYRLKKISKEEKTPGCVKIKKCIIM
T1 sequence (P01116 whole entry G12D): as the sequence (P01116 whole entry) above, with G12D counted along it

SMILES	IC50 (K-Ras G12D) [µM]	IC50 [2] [µM]	IC50 (wild type K-Ras) [µM]	IC50 [3] [µM]	IC50 (Panc1-G12D) [µM]	IC50 (HCT116-G31D) [µM]	IC50 (Panc10.05-G12D) [µM]	IC50 [1] [µM]	EC50 [4] [µM]	EC50 [5] [µM]	EC50 [6] [µM]
COc1cccc(CN2C(=O)CCc3cc(-c4csc(NC(=O)c5oc(C)nc5C)n4)ccc32)c1 [Compound 76, N-(4-(1-(3-methoxybenzyl)-2-oxo-1,2,3,4-tetrahydroquinolin-6-yl)thiazol-2-yl)-2,4-dimethyloxazole-5-carboxamide]	13.9	2	12.6	17	5	4	0.679	5	–	–	–
Cc1nc(C)c(C(=O)Nc2nc(-c3ccc4c(c3)CCC(=O)N4Cc3ccccc3)cs2)o1 [Compound 60, N-(4-(1-benzyl-2-oxo-1,2,3,4-tetrahydroquinolin-6-yl)thiazol-2-yl)-2,4-dimethyloxazole-5-carboxamide]	7.4	14	8.6	–	2	7	13	6	3	6	4
Cc1nc(C2CCOC2)oc1C(=O)Nc1nc(-c2ccc3c(c2)CCC(=O)N3)cs1 (stereo not shown) [Compound 10, 4-methyl-N-(4-(2-oxo-1,2,3,4-tetrahydroquinolin-6-yl)thiazol-2-yl)-2-(tetrahydrofuran-3-yl)oxazole-5-carboxamide]	22	5	> 25	23	4	5	2	2	–	–	–
CCc1nc(C)c(C(=O)Nc2nc(-c3ccc4c(c3)CCC(=O)N4Cc3ccccc3)cs2)o1 [Compound 59, N-(4-(1-benzyl-2-oxo-1,2,3,4-tetrahydroquinolin-6-yl)thiazol-2-yl)-2-ethyl-4-methyloxazole-5-carboxamide]	5.8	10	6.5	–	2	6	11	4	3	6	3
Cc1nc(C)c(C(=O)Nc2nc(-c3ccc4c(c3)CCC(=O)N4CC3CCCCC3)cs2)o1 [Compound 62, N-(4-(1-(cyclohexylmethyl)-2-oxo-1,2,3,4-tetrahydroquinolin-6-yl)thiazol-2-yl)-2,4-dimethyloxazole-5-carboxamide]	21.7	3	> 25	–	5	4	2	3	6	6	2
Cc1nc(C)c(C(=O)Nc2nc(-c3ccc4c(c3)CCC(=O)N4Cc3cncc4ccccc34)cs2)o1 [Compound 82, N-(4-(1-(isoquinolin-4-ylmethyl)-2-oxo-1,2,3,4-tetrahydroquinolin-6-yl)thiazol-2-yl)-2,4-dimethyloxazole-5-carboxamide]	24.6	13	> 25	> 25	> 25	10	> 25	4	–	–	–
Cn1nc2ccccc2c1C(=O)Nc1nc(-c2ccc3c(c2)CCC(=O)N3)cs1 [Compound 26, 2-methyl-N-(4-(2-oxo-1,2,3,4-tetrahydroquinolin-6-yl)thiazol-2-yl)-2H-indazole-3-carboxamide]	10.6	1.4	> 25	6	2	1	1.1	< 0.8	–	–	–
Cc1nc(C)c(C(=O)Nc2nc(-c3ccc4c(c3)CCC(=O)N4Cc3cccc(N)c3)cs2)o1 [Compound 90, N-(4-(1-(3-aminobenzyl)-2-oxo-1,2,3,4-tetrahydroquinolin-6-yl)thiazol-2-yl)-2,4-dimethyloxazole-5-carboxamide]	14.2	4	16.6	4	10	3	8	–	–	–	–
Cc1nc(C)c(C(=O)Nc2nc(-c3ccc4c(c3)CCC(=O)N4Cc3cccc4c3OCO4)cs2)o1 [Compound 73, N-(4-(1-(benzo[d][1,3]dioxol-4-ylmethyl)-2-oxo-1,2,3,4-tetrahydroquinolin-6-yl)thiazol-2-yl)-2,4-dimethyloxazole-5-carboxamide]	19.2	3	18.8	12	7	3	0.733	4	–	–	–

The next lines start with results.

IC50 (K-Ras G12D) [µM]	IC50 [2] [µM]	IC50 (wild type K-Ras) [µM]	IC50 [3] [µM]	IC50 (Panc1-G12D) [µM]	IC50 (HCT116-G31D) [µM]	IC50 (Panc10.05-G12D) [µM]	SMILES	IC50 [1] [µM]	EC50 [4] [µM]	EC50 [5] [µM]	EC50 [6] [µM]
6.6	2	10.7	7	2	2	0.774	CCn1cc(C(=O)Nc2nc(-c3ccc4c(c3)CCC(=O)N4)cs2)c(C)n1 [Compound 25, 1-ethyl-3-methyl-N-(4-(2-oxo-1,2,3,4-tetrahydroquinolin-6-yl)thiazol-2-yl)-1H-pyrazole-4-carboxamide]	1.1	–	–	–
6.1	2	16.7	2	5	2	5	Cc1nc(C)c(C(=O)Nc2nc(-c3ccc4c(c3)CCC(=O)N4CC3CCCN(C(=O)OC(C)(C)C)C3)cs2)o1 (stereo not shown) [Compound 86, tert-butyl 3-((6-(2-(2,4-dimethyloxazole-5-carboxamido)thiazol-4-yl)-2-oxo-3,4-dihydroquinolin-1(2H)-yl)methyl)piperidine-1-carboxylate]	–	–	–	–
4.9	4	19.9	3	7	4	7	Cc1nc(C2CCOC2)sc1C(=O)Nc1nc(-c2ccc3c(c2)CCC(=O)N3Cc2cccnc2)cs1 (stereo not shown) [Compound 84, 4-methyl-N-(4-(2-oxo-1-(pyridin-3-ylmethyl)-1,2,3,4-tetrahydroquinolin-6-yl)thiazol-2-yl)-2-(tetrahydrofuran-3-yl)thiazole-5-carboxamide]	–	–	–	–
7.6	5	23.4	5	8	4	6	Cc1nc(C2CCOC2)oc1C(=O)Nc1nc(-c2ccc3c(c2)CCC(=O)N3Cc2cccnc2)cs1 (stereo not shown) [Compound 85, 4-methyl-N-(4-(2-oxo-1-(pyridin-3-ylmethyl)-1,2,3,4-tetrahydroquinolin-6-yl)thiazol-2-yl)-2-(tetrahydrofuran-3-yl)oxazole-5-carboxamide]	–	–	–	–
